Test results as given in patent US20260007681A1, “INDOLE DERIVATIVES AS ESTROGEN RECEPTOR DEGRADERS” (REGENTS OF THE UNIVERSITY OF MICHIGAN, priority 2022, published 2026).

Target: ER (Homo sapiens (Human), UniProt P03372)
Assay: Western blot analysis (Compounds B1-B278)
Format: cell-based
Settings: ER degradation by traditional Western blot; DC50 classes
Summary of the method: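 Relative target-protein levels come from densitometry of immunoblots, normalized to GAPDH. Lysates from treated cells were prepared in RIPA buffer (pH 7.6) containing protease inhibitors, and equal protein amounts, checked by BCA, were separated on 10% gels and blotted onto PVDF.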

Chain of ER (P03372 whole entry): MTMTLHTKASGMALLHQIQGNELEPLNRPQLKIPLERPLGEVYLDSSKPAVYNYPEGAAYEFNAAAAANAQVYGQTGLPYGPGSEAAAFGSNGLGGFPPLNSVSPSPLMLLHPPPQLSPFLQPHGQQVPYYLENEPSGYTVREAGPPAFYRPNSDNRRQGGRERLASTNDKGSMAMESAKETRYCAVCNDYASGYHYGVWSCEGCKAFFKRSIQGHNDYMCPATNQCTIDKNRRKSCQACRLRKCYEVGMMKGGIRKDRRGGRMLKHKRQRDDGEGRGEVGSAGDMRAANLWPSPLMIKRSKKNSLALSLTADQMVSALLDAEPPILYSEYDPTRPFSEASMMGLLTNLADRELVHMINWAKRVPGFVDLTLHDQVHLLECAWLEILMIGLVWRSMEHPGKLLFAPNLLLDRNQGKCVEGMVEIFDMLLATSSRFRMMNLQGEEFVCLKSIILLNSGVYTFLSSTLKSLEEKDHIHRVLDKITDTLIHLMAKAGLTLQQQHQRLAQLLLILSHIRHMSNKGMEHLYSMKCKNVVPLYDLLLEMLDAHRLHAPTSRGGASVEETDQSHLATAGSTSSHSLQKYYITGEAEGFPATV

Row | Traditional Western Degradation Potency | SMILES
1 | C (“C”: >100 nM) | C[C@@H]1Cc2c([nH]c3ccccc23)[C@@H](c2c(F)cc(N3CCC(CN4Cc5cc6c(cc5C4)C(=O)N(C4CCC(=O)NC4=O)C6)CC3)cc2F)N1CC(F)F (stereo partly drawn) [Compound B73, 3-(6-((1-(4-((1R,3R)-2-(2,2-difluoroethyl)-3-methyl-2,3,4,9-tetrahydro-1H-pyrido[3,4-b]indol-1-yl)-3,5-difluorophenyl)piperidin-4-yl)methyl)-1-oxo-3,5,6,7-tetrahydropyrrolo[3,4-f]isoindol-2(1H)-yl)piperidine-2,6-dione]
2 | B (“B”: 10-100 nM) | C[C@@H]1Cc2c([nH]c3ccccc23)[C@@H](c2c(F)cc(N3CC(F)(C(=O)N4CCC(CN5Cc6cc7c(cc6C5)C(=O)N(C5CCC(=O)NC5=O)C7=O)CC4)C3)cc2F)N1CC(F)F (stereo partly drawn) [Compound B74, 6-((1-(1-(4-((1R,3R)-2-(2,2-difluoroethyl)-3-methyl-2,3,4,9-tetrahydro-1H-pyrido[3,4-b]indol-1-yl)-3,5-difluorophenyl)-3-fluoroazetidine-3-carbonyl)piperidin-4-yl)methyl)-2-(2,6-dioxopiperidin-3-yl)-6,7-dihydropyrrolo[3,4-f]isoindole-1,3(2H,5H)-dione]
3 | C (“C”: >100 nM) | C[C@@H]1Cc2c([nH]c3ccccc23)[C@@H](c2c(F)cc(N3CC(F)(C(=O)N4CCC(F)(CN5Cc6cc7c(cc6C5)C(=O)N(C5CCC(=O)NC5=O)C7=O)CC4)C3)cc2F)N1CC(F)F (stereo partly drawn) [Compound B75, 6-((1-(1-(4-((1R,3R)-2-(2,2-difluoroethyl)-3-methyl-2,3,4,9-tetrahydro-1H-pyrido[3,4-b]indol-1-yl)-3,5-difluorophenyl)-3-fluoroazetidine-3-carbonyl)-4-fluoropiperidin-4-yl)methyl)-2-(2,6-dioxopiperidin-3-yl)-6,7-dihydropyrrolo[3,4-f]isoindole-1,3(2H,5H)-dione]
4 | A (“A”: <10 nM) | C[C@@H]1Cc2c([nH]c3ccccc23)[C@@H](c2c(F)cc(N3CC(C(=O)N4CCC(CN5Cc6cc7c(cc6C5)C(=O)N(C5CCC(=O)NC5=O)C7=O)CC4)C3)cc2F)N1CC(F)F (stereo partly drawn) [Compound B76, 6-((1-(1-(4-((1R,3R)-2-(2,2-difluoroethyl)-3-methyl-2,3,4,9-tetrahydro-1H-pyrido[3,4-b]indol-1-yl)-3,5-difluorophenyl)azetidine-3-carbonyl)piperidin-4-yl)methyl)-2-(2,6-dioxopiperidin-3-yl)-6,7-dihydropyrrolo[3,4-f]isoindole-1,3(2H,5H)-dione]
5 | A (“A”: <10 nM) | C[C@@H]1Cc2c([nH]c3ccccc23)[C@@H](c2c(F)cc(C3CCC(C(=O)N4CCC(N5Cc6cc7c(cc6C5)C(=O)N(C5CCC(=O)NC5=O)C7=O)CC4)CC3)cc2F)N1CC(F)F (stereo partly drawn) [Compound B77, 6-(1-(4-(4-((1R,3R)-2-(2,2-difluoroethyl)-3-methyl-2,3,4,9-tetrahydro-1H-pyrido[3,4-b]indol-1-yl)-3,5-difluorophenyl)cyclohexane-1-carbonyl)piperidin-4-yl)-2-(2,6-dioxopiperidin-3-yl)-6,7-dihydropyrrolo[3,4-f]isoindole-1,3(2H,5H)-dione]
6 | B (“B”: 10-100 nM) | C[C@@H]1Cc2c([nH]c3ccccc23)[C@@H](c2c(F)cc(C3CCC(C(=O)N4CCC(F)(CN5Cc6cc7c(cc6C5)C(=O)N(C5CCC(=O)NC5=O)C7=O)CC4)CC3)cc2F)N1CC(F)F (stereo partly drawn) [Compound B78, 6-((1-(4-(4-((1R,3R)-2-(2,2-difluoroethyl)-3-methyl-2,3,4,9-tetrahydro-1H-pyrido[3,4-b]indol-1-yl)-3,5-difluorophenyl)cyclohexane-1-carbonyl)-4-fluoropiperidin-4-yl)methyl)-2-(2,6-dioxopiperidin-3-yl)-6,7-dihydropyrrolo[3,4-f]isoindole-1,3(2H,5H)-dione]
7 | C (“C”: >100 nM) | C[C@@H]1Cc2c([nH]c3ccccc23)[C@@H](c2c(F)cc(C3CCC(C(=O)N4CCC(CN5Cc6cc7c(cc6C5)C(=O)N(C5CCC(=O)NC5=O)C7=O)CC4)CC3)cc2F)N1CC(F)F (stereo partly drawn) [Compound B79, 6-((1-(4-(4-((1R,3R)-2-(2,2-difluoroethyl)-3-methyl-2,3,4,9-tetrahydro-1H-pyrido[3,4-b]indol-1-yl)-3,5-difluorophenyl)cyclohexane-1-carbonyl)piperidin-4-yl)methyl)-2-(2,6-dioxopiperidin-3-yl)-6,7-dihydropyrrolo[3,4-f]isoindole-1,3(2H,5H)-dione]
8 | C (“C”: >100 nM) | C[C@@H]1Cc2c([nH]c3ccccc23)[C@@H](c2c(F)cc(C3CCC(C(=O)N4CC(N5Cc6cc7c(cc6C5)C(=O)N(C5CCC(=O)NC5=O)C7=O)C4)CC3)cc2F)N1CC(F)F (stereo partly drawn) [Compound B80, 6-(1-(4-(4-((1R,3R)-2-(2,2-difluoroethyl)-3-methyl-2,3,4,9-tetrahydro-1H-pyrido[3,4-b]indol-1-yl)-3,5-difluorophenyl)cyclohexane-1-carbonyl)azetidin-3-yl)-2-(2,6-dioxopiperidin-3-yl)-6,7-dihydropyrrolo[3,4-f]isoindole-1,3(2H,5H)-dione]
9 | A (“A”: <10 nM) | C[C@@H]1Cc2c([nH]c3ccccc23)[C@@H](c2c(F)cc(C3CCC(C(=O)N4CC(CN5Cc6cc7c(cc6C5)C(=O)N(C5CCC(=O)NC5=O)C7=O)C4)CC3)cc2F)N1CC(F)F (stereo partly drawn) [Compound B81, 6-((1-(4-(4-((1R,3R)-2-(2,2-difluoroethyl)-3-methyl-2,3,4,9-tetrahydro-1H-pyrido[3,4-b]indol-1-yl)-3,5-difluorophenyl)cyclohexane-1-carbonyl)azetidin-3-yl)methyl)-2-(2,6-dioxopiperidin-3-yl)-6,7-dihydropyrrolo[3,4-f]isoindole-1,3(2H,5H)-dione]
10 | C (“C”: >100 nM) | C[C@@H]1Cc2c([nH]c3ccccc23)[C@@H](c2c(F)cc(C3CCC(CN4CCC(N5Cc6cc7c(cc6C5)C(=O)N(C5CCC(=O)NC5=O)C7=O)CC4)CC3)cc2F)N1CC(F)F (stereo partly drawn) [Compound B82, 6-(1-((4-(4-((1R,3R)-2-(2,2-difluoroethyl)-3-methyl-2,3,4,9-tetrahydro-1H-pyrido[3,4-b]indol-1-yl)-3,5-difluorophenyl)cyclohexyl)methyl)piperidin-4-yl)-2-(2,6-dioxopiperidin-3-yl)-6,7-dihydropyrrolo[3,4-f]isoindole-1,3(2H,5H)-dione]
11 | C (“C”: >100 nM) | C[C@@H]1Cc2c([nH]c3ccccc23)[C@@H](c2c(F)cc(C3CCC(CN4CC(CN5Cc6cc7c(cc6C5)C(=O)N(C5CCC(=O)NC5=O)C7=O)C4)CC3)cc2F)N1CC(F)F (stereo partly drawn) [Compound B83, 6-((1-((4-(4-((1R,3R)-2-(2,2-difluoroethyl)-3-methyl-2,3,4,9-tetrahydro-1H-pyrido[3,4-b]indol-1-yl)-3,5-difluorophenyl)cyclohexyl)methyl)azetidin-3-yl)methyl)-2-(2,6-dioxopiperidin-3-yl)-6,7-dihydropyrrolo[3,4-f]isoindole-1,3(2H,5H)-dione]
